One assay concerns the target T1, Or47a/Or83b (Drosophila melanogaster, UniProt P81921+Q9VNB5).
T1 construct: Full-length cDNAs for mosquito (Anopheles gambiae) odorant receptor (OR1, OR2, OR7, OR8, OR28), and fly (Drosophila melanogaster) odorant receptor (Or47a, Or83b); expressed in transfected cells
T1 sequence (P81921 1-385): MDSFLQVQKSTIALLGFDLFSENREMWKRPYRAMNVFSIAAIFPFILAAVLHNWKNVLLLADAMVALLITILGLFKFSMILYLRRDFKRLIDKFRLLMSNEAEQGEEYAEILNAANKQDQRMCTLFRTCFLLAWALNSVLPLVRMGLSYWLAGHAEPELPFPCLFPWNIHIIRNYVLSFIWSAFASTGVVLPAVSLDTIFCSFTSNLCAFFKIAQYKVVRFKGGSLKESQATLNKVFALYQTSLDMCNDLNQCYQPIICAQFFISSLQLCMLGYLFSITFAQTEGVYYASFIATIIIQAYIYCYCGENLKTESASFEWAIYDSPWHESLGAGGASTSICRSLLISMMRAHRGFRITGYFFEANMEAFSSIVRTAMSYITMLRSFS
T1 sequence (Q9VNB5 1-486): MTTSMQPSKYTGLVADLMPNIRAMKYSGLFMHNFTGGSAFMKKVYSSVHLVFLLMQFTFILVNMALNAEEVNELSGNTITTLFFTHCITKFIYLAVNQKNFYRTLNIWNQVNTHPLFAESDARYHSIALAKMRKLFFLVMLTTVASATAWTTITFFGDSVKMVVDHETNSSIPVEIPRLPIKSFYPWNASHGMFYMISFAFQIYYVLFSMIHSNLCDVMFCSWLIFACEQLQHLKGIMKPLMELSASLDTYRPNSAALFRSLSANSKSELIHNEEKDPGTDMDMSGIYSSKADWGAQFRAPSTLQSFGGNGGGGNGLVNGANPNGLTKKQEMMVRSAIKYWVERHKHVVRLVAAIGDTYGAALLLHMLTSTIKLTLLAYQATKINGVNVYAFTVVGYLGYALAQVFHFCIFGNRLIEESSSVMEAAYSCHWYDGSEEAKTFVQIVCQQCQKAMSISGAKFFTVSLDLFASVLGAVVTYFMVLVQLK
Kind of assay: Ca2+-imaging of stable Flip-In T-Rex cell line Or47a/Or83b. Type of assay: cell-based. The following applies: for inhibition at 4 µM: read-out: Percent Inhibition OR47a OR83b. Here is the method: (§1) Full-length cDNAs for mosquito (Anopheles gambiae) odorant receptor (OR1, OR2, OR7, OR8, OR28), and fly (Drosophila melanogaster) odorant receptor (Or47a, Or83b), mouse TRP channel (TRPM8), and mouse serotonin receptor (5HT3) were obtained and subcloned into mammalian expression vectors. The following mammalian expression vectors were used:
(§2) Stable cell lines Or47a/Or83b and 5HT3 were generated from Flip-In T-Rex cells. Flip-In T-Rex-based cell lines were cultured in DMEM supplemented with these additional antibiotics: 6 μg/mL blasticidin and 100 μg/mL hygromycin.
(§3) Cells were trypsinized and split into 35 mm dishes 1 day before transfection. Confluent cells (60-70%) in 35 mm dishes were co-transfected with 1 μg of Or47a/Or83b plasmid in pcDNA5/FRT/TO/IRES plus the pOG44 plasmid or 1 μg of 5HT3 plasmid in pcDNA5/FRT/TO plus the pOG44 plasmid using lipofectamine 2000. Co-transfection of pOG44 and pcDNA5/FRT/TO/IRES or pcDNA5/FRT/TO allows expression of Flp recombinase and integration of the pcDNA5 plasmid into the genome via the FRT site. After one day of incubation, the transfected cells were transferred into 10 cm dishes with DMEM containing antibiotics: 20 μg/mL of hygromycin and 6 μg/mL of blasticidin. The concentration of Hygromycin was increased to 100 μg/mL when the population of cells became 30-40% confluent. The cells were cultured by changing medium every two days until cell clumps appeared. The clumps were picked and transferred into 96 well plates with DMEM containing 100 μg/mL of Hygromycin and 6 μg/mL of blasticidin. The cells were grown and transferred to 24 well plates, and ligand-evoked calcium increases were tested using the Hamamatsu FDSS6000 real time fluorescence plate reader.
(§4) Stable cell lines were cultured in 10 cm dishes, and confluent cells (70-80%) were trypsinized. 10,000 cells/20 μL were transferred into each well of 384-well plates coated with poly-D-lysine, and cultured for 2 days. For Flip-In T-Rex cells (cell lines expressing Or47a/Or83b and 5HT3), 5 μL of tetracycline (5 μg/mL) were added 1 day before the assay. 20 μL of Ca-4 dye was loaded into each well for 1.5 hr at room temperature in the dark, and the dye-loaded plates were subjected to Ca^2+-imaging using a Hamamatsu FDSS6000 real time fluorescence plate reader. Odorant solutions (9× final concentration) were prepared by dissolving 1M stock solutions into Hank's Buffered Salt Solution (HBSS), and 30 μL of odor solution was transferred to each well in 384-well plates.
(§5) Compounds ([…] in DMSO) were stored in 384-well plates, and last two columns (32 wells total) contained only DMSO. 200 nL of small compounds were transferred into the odorant plates before the assay using the Perkin-Elmer Janus workstation. The odorant plates were spun down to remove air bubbles, and placed on the FDSS6000 plate loader, and 5 μL of odorant solution was applied to the cell plate on the FDSS6000. Ca^2+ increase was monitored with fluorescence at 525 nm by excitation at 485 nm.

The target in assay [1] is T2, serotonin receptor (5HT3) (Mus musculus, UniProt P23979).
T2 construct: Full-length cDNAs for mosquito (Anopheles gambiae) odorant receptor; expressed in transfected cells
T2 sequence (P23979 24-489): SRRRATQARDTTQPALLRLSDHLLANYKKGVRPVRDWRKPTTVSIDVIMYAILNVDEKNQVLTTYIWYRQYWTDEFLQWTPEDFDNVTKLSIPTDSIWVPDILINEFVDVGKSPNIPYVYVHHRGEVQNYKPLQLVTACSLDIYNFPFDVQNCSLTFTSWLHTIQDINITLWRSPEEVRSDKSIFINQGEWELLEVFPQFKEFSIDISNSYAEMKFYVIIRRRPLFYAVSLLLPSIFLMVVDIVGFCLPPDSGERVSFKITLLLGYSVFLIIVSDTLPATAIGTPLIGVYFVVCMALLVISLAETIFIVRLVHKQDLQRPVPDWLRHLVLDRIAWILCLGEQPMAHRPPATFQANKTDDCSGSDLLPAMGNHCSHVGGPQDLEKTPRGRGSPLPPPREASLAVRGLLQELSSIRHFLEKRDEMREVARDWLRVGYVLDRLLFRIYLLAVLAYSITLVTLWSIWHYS
Kind of assay: Ca2+-imaging of stable Flip-In T-Rex cell line 5HT3. Type of assay: cell-based. Particulars: for inhibition at 4 µM: read-out: Percent Inhibition 5HT3. On the procedure: as §1, §2, §3, §4, §5

Like-named read-outs stand apart in the source and are kept apart here. Where only a bound is given, the exact number is not on record here.

Consider `COCCNC(=O)c1ccc(CSc2nnc(-c3ccc(C)cc3)n2-c2ccccc2C)cc1` [RU-0053556], for which the inhibition at 4 µM at Or47a/Or83b (compound applied at 4 μM) is 26 to 50%; in assay [1] (compound applied at 4 μM), less than 25%.
In the same order, the values of `CCc1cc(N2CCCC2)nc(SCc2ccc(C(=O)N3CCOCC3)o2)n1` [RU-0047568] are 26 to 50% and 26 to 50%.
Consider `CC(C)Nc1nc(NC(C)C)nc(C(F)(F)F)n1` [RU-T8], for which the half-inhibitory concentration (IC50) (on Or47a/Or83b; in assay [1]) was greater than 20000 nM throughout.
`CCOC(=O)c1c(NC(C)=O)c(-c2ccc(OC)cc2)cn1Cc1ccccc1` [RU-0077733]: the inhibition at 4 µM at Or47a/Or83b (compound applied at 4 μM) is 26 to 50%; in assay [1] (compound applied at 4 μM), less than 25%.
Regarding `Cc1ccccc1C(=O)N[C@@H]1CCCCC1NC(=O)C1CCN(C(=O)C23CC4CC(CC(C4)C2)C3)CC1` (stereo partly shown) [RU-0045351], the inhibition at 4 µM on Or47a/Or83b (compound applied at 4 μM) is 26 to 50%; in assay [1] (compound applied at 4 μM) it was less than 25%.
For `O=C(c1ccco1)N(Cc1nccn1Cc1ccccc1Cl)CC1CC1` [RU-0047281], the IC50 is greater than 1000 nM at Or47a/Or83b (Table B, read-out: IC50 OR47a) and 100 to 1000 nM in assay [1] (Table B, read-out: IC50 5HT3). Besides, the inhibition at 4 µM (on Or47a/Or83b (compound applied at 4 μM); in assay [1] (compound applied at 4 μM)) was greater than 75% throughout.
As for `COc1ccc(-n2c(Cc3ccccc3)nnc2SCCCC(=O)N2CCN(C(=O)c3ccc(C(F)(F)F)cc3)C(C)C2)cc1` (stereo not shown) [RU-0071828], the inhibition at 4 µM (on Or47a/Or83b (compound applied at 4 μM); in assay [1] (compound applied at 4 μM)) was 26 to 50% each time.
In the case of `CC(C)CN(Cc1nccn1Cc1ccc(Cl)cc1Cl)C(=O)c1ccccc1F` [RU-0055322], the values for the inhibition at 4 µM (at Or47a/Or83b (compound applied at 4 μM); in assay [1] (compound applied at 4 μM)) were 26 to 50% and less than 25%, respectively.
As to `CCNc1nc(Cl)nc(NC(C)C)n1` [RU-T5], the IC50 at Or47a/Or83b (ligand pentyl acetate 30 μM, read-out: IC50 OR47a OR83b) was greater than 20000 nM; in assay [1] (ligand serotonin 10 μM, read-out: IC50 5HT3), greater than 20000 nM.
With `O=C(Cc1cccc(F)c1)N1CCOC(COCc2c(Cl)cccc2Cl)C1` (stereo not shown) [RU-0050398], the inhibition at 4 µM was 26 to 50% at Or47a/Or83b (compound applied at 4 μM) and less than 25% in assay [1] (compound applied at 4 μM).
As to `CCN(CC)C(=O)Oc1ccc2c(ccn2Cc2cccc(C)c2)c1NC(=O)CCCCC(=O)OC` [RU-0075445], the inhibition at 4 µM (on Or47a/Or83b; in assay [1]) was less than 25% each time.
On to `COCCN(Cc1c(-c2ccccc2)noc1N1CCSCC1)CC(O)COCc1ccco1` (stereo not shown) [RU-0037278], for which the IC50 at Or47a/Or83b (Table B, read-out: IC50 OR47a) was greater than 1000 nM. The figures for the inhibition at 4 µM (at Or47a/Or83b (compound applied at 4 μM); in assay [1] (compound applied at 4 μM)) were 51 to 74% and 26 to 50%, respectively.
For the molecule `COc1ccc(-c2cc(-c3ccccc3)n(C(=O)CN3CCN(Cc4ccccc4)CC3)n2)cc1` [RU-0038795], the half-maximal inhibitory concentration (IC50) at Or47a/Or83b (Table B, read-out: IC50 OR47a) is greater than 1000 nM; in assay [1] (Table B, read-out: IC50 5HT3), greater than 1000 nM. The inhibition at 4 µM (on Or47a/Or83b (compound applied at 4 μM); in assay [1] (compound applied at 4 μM)) was 51 to 74% in each case.
`Fc1ccccc1/C=N/Nc1nc(N2CCCCC2)nc(N2CCOCC2)n1` [RU-0018338]: on Or47a/Or83b (Table B, read-out: IC50 OR47a), the half-maximal inhibitory concentration (IC50) is less than 100 nM. Besides, the inhibition at 4 µM at Or47a/Or83b (compound applied at 4 μM) is 51 to 74%; in assay [1] (compound applied at 4 μM), 26 to 50%.
In the same order, the values of `N#Cc1ccccc1C(=O)N1CCOC(COCc2c(Cl)cccc2Cl)C1` (stereo not shown) [RU-0050405] are greater than 1000 nM, 51 to 74% and less than 25%.

For the origin of these results see US20130324522A1, “INSECT ODORANT RECEPTOR ANTAGONISTS” (THE ROCKEFELLER UNIVERSITY, priority 2010, published 2013).
